{"source": "patent US12090179B2", "about": "“Methods of synergistic treatment of cancer” (priority 2016, dated 2024)", "key": {"[1]": {"assay": "Percent weight change as measure of toxicity in BALB-neuT mice", "assay_type": "in vivo", "experimental": "Female BALB-neu-T mice spontaneously developed palpable mammary fat pad tumors around 16 weeks of age (approximately 50-60 mm^3). At this time (day 0), the mice typically had 1-3 palpable tumors. For each experiment, individual tumors were measured by caliper, and their volume was calculated. Individual tumor volumes were calculated as spheroid (L×W^2×0.52) and combined to give a total tumor burden measurement for each mouse. Tumor burden data was gathered weekly from day 0 to day 35. Additionally, percent weight change data was gathered weekly for each mouse from day 0 to day 35. The percent weight change was calculated based on the baseline weight of each mouse.\nVarious embodiments of method 200, described above with respect to FIG. 2, were used to treat tumors in the BALB-neuT model using combinations of attenuated S. typhimurium and the chemotherapy agent doxorubicin. A prescribed amount per cfu of the appropriate S. typhimurium strain (SalpIL2 or SalpNG.1) was administered via intravenous injection or gavage orally in 100 μL of PBS. The doxorubicin was administered intravenously via tail vein. Additionally, using the same methods of administration, a number of control groups received PBS alone, doxorubicin alone, SalpIL2 alone, or SalpNG.1 alone.\nFIG. 6 is a line graph of percent weight change versus days post-treatment in mice treated with combinations of attenuated S. typhimurium and doxorubicin compared to control groups. Weight change in mice is an accurate measure of the degree of toxicity of a chemotherapy agent. […] While the control group that received PBS (301) saw a greater than 25% increase in weight by day 30, the mice in that group died or were moribund and euthanized due to tumor growth."}, "mammary fat pad tumors": {"test_system": "mammary fat pad tumors", "assay_type": "in vivo, BALB-neuT mice", "from_the_text": "The BALB-neuT model is a genetically engineered mouse model in which mammary tumor development is driven by expression of a constitutively activated rat homolog of human epidermal growth factor receptor 2. In this model, autochthonous tumors develop over several months and are palpable in the mammary pads of female mice around 16 weeks of age. The tumors closely resemble the aggressive Her2-driven cancer found in human patients.\nBALB-neuT mice were maintained in specific pathogen free conditions and fed standard mouse chow (Harlan). Animals were cared for by the University of Minnesota's Research Animal Resources, and all animal use was approved by the University's Institutional Animal Care and Use Facility. Genotyping for the neu transgene was performed by Transnetyx on male and female pups. Breeding pairs consisted of heterozygous males and homozygous negative females. Female mice that were positive for the neu transgene were monitored for tumor development.\nThree control groups received doxorubicin alone. The first control group (302) received the maximum tolerated dose (MTD) of intravenous (IV) 5 mg/kg doxorubicin on days 0, 7, and 14. The second control group (303) received IV 2.5 mg/kg (50% reduction in MTD) doxorubicin on days 0, 7 and 14.\nOne control group (305) of mice received SalpIL2 alone. […] Another control group (306) received Salp NG.1 alone.\nFor combination therapy treatment with SalpIL2, one group of mice (307) received an oral dose of 1×10^9 cfu SalpIL2 as well as IV 1.25 mg/kg doxorubicin on day 0. Two additional doses of IV 1.25 mg/kg doxorubicin were administered on days 7 and 14. For combination therapy treatment with SalpNG.1, a first group of mice (308) received an IV dose of 2×10^6 cfu SalpNG.1 as well as IV 1.25 mg/kg doxorubicin on day 0. Two additional doses of IV 1.25 mg/kg doxorubicin were administered on days 7 and 14. A second group of mice (309) received an IV dose of 2×10^6 cfu SalpNG.1 as well as IV 2.5 mg/kg doxorubicin on day 0. Two additional doses of IV 2.5 mg/kg doxorubicin were administered on days 7 and 14."}, "[2]": {"settings": "doxorubicin alone IV 1.25 mg/kg on days 0, 7, 14, group 304"}, "[3]": {"settings": "doxorubicin alone IV 5 mg/kg (MTD) on days 0, 7, 14, group 302"}, "[4]": {"settings": "doxorubicin alone IV 1.25 mg/kg (25% of MTD) on days 0, 7, 14, group 304"}}, "data": [{"compound": "COc1cccc2c1C(=O)c1c(O)c3c(c(O)c1C2=O)C[C@@](O)(C(=O)CO)C[C@@H]3O[C@H]1C[C@H](N)[C@H](O)[C@H](C)O1", "note": "[doxorubicin]", "values": [{"measurement": "toxicity judged from weight change", "setting": "[1]; [2]", "value": "non-toxic"}, {"measurement": "weight change by day 14", "setting": "[1]; [2]", "value": "did not show any weight loss"}, {"measurement": "weight gain by day 35", "setting": "[1]; [2]", "value": "< 10", "unit": "%"}, {"measurement": "toxicity judged from weight change", "setting": "[1]; [3]", "value": "significant toxicity"}, {"measurement": "weight loss by day 14", "setting": "[1]; [3]", "value": "greater than 20%"}, {"measurement": "weight loss by day 35", "setting": "[1]; [3]", "value": "~10", "unit": "%"}, {"measurement": "tumor burden relative to the MTD doxorubicin group (302) by day 21", "setting": "mammary fat pad tumors; [4]", "value": "almost double"}, {"measurement": "tumor burden relative to the MTD doxorubicin group (302) by day 35", "setting": "mammary fat pad tumors; [4]", "value": "~5", "unit": "times"}, {"measurement": "tumor burden compared with groups 302 (MTD) and 304 (1.25 mg/kg)", "setting": "mammary fat pad tumors; doxorubicin alone IV 2.5 mg/kg (50% of MTD) on days 0, 7, 14, group 303", "value": "in between"}, {"measurement": "tumor burden at day 35", "setting": "mammary fat pad tumors; [3]", "value": "around 100 mm^3"}, {"measurement": "tumor burden compared with the other groups", "setting": "mammary fat pad tumors; [3]", "value": "lowest"}]}]}
